Where a name gives a salt, the structure may show the parent alone.
How the values were obtained:
[1] = tested on: cells of the large-cell lung carcinoma of the tumor line LXFL-529L; test: Tumor cell growth inhibition, SRB-assay, LXFL-529L; type: cell-based; settings: 50% growth inhibition, three days incubation in serum-containing medium
[2] = tested on: cells of the mammary carcinoma cell line MCF-7; test: Tumor cell growth inhibition, SRB-assay, MCF-7; type: cell-based; settings: 50% growth inhibition, three days incubation in serum-containing medium

| Compound | IC50 [1] | IC50 [2] |
| --- | --- | --- |
| 3-{3′-[iminooxy-O-((N,N)-bis(hydroxyethyl)-4-amino-butyl)]-(2H3H)indol-2′-ylidene}-(2H3H)indol-2-one [Example 61] | 8 ± 0.3 µM | 12.4 ± 0.7 µM |
| CC(=O)Nc1ccc2c(c1)C(=C1Nc3ccccc3C1=NO)C(=O)N2 [Example 29, 5-acetylamino-indirubin-3′-monooxime] | 4 ± 0.9 µM | 5 ± 0.5 µM |
| Cc1ccc2c(c1)C(=C1Nc3ccccc3C1=NOCCO)C(=O)N2 [Example 67, 3-[3′-[iminooxy-O-(2-hydroxy-ethyl)]-(2H′3H′)indol-2′-ylidene]-5-methyl-(2H3H)indol-2-one] | 1 ± 0.5 µM | 1.5 ± 0.6 µM |
| O=C1Nc2ccccc2C1=C1Nc2ccccc2C1=NOCCN(CCO)CCO [Example 60, 3-{3′-[iminooxy-O-((N,N)-bis(hydroxyethyl)-2-amino-ethyl)]-(2′H3′H)indol-2′-ylidene}-(2H3H)indol-2-one] | 3 ± 0.4 µM | 4.5 ± 0.5 µM |
| COC(=O)CNS(=O)(=O)c1ccc2c(c1)C(=C1Nc3ccccc3C1=O)C(=O)N2 [Example 24, methyl-2-{[3-(3′-oxo-(2′H3′H)indol-2′-ylidene)-(2H3H)indol-2-one-5-yl]-sulfonylamino}-acetate] | 16 ± 0.8 µM | 25 ± 0.9 µM |
| 3-{3′-[iminooxy-O-(O^4-α-D-glucopyranosyl-2-D-glucopyranosylethyl)]-(2′H3′H)indol-2′-ylidene}-(2H3H)indol-2-one [Example 46] | 24 ± 1.3 µM | 7 ± 0.9 µM |
| indirubin-5-sulfonic acid-(morpholin-4-yl-amide) [Example 23] | 4.5 ± 0.8 µM | 3 ± 0.9 µM |
| O=C1Nc2ccc(NCCO)cc2C1=C1Nc2ccccc2C1=O [Example 21, 5-(2-hydroxy-ethyl)-amino-indirubin] | 3 ± 0.5 µM | 5 ± 0.6 µM |
| CN(C)C(=O)Cc1ccc2c(c1)C(=C1Nc3ccccc3C1=O)C(=O)N2 [Example 10, N,N-dimethyl-2-[3-(3′-oxo-(2′H3′H)indol-2′-ylidene)-(2H3H)indol-2-one-5-yl]-acetamide] | 16 ± 0.9 µM | 20 ± 1.3 µM |
| O=C(O)CCC(=O)Nc1ccc2c(c1)C(=C1Nc3ccccc3C1=O)C(=O)N2 [Example 17, [3-(3′-oxo-(2′H3′H)indol-2′-ylidene)-(2H3H)indol-2-one-5-yl]-succinamic acid] | 12.5 ± 0.7 µM | 14 ± 0.9 µM |
| CCOC(=O)ON=C1C(=C2C(=O)Nc3ccccc32)Nc2ccccc21 [Example 39, 3-[3′-(iminooxy-O-carbethoxy)-(2′H3′H)indol-2′-ylidene]-(2H3H)indol-2-one] | 4.5 ± 0.7 µM | 10 ± 0.9 µM |
| CC(C)(O)CON=C1C(=C2C(=O)Nc3ccccc32)Nc2ccccc21 [Example 34, 3-{3′-[iminooxy-O-((2-hydroxy-2-methyl)-propyl)]-(2′H3′H)indol-2′-ylidene}-(2H3H)indol-2-one] | 2 ± 0.5 µM | 2 ± 0.3 µM |
| CN(C)CCON=C1C(=C2C(=O)Nc3ccccc32)Nc2ccccc21 [Example 58, 3-{3′-[iminooxy-O-((N,N)-dimethyl-2-amino-ethyl)]-(2′H3′H)indol-2′-ylidene}-(2H3H)indol-2-one] | 5 ± 0.9 µM | 6.5 ± 1.1 µM |
| O=C(O)CCCON=C1C(=C2C(=O)Nc3ccccc32)Nc2ccccc21 [Example 37, 4-{O-[2′-(2-oxo-(2H3H)indol-3-ylidene)-(2′H3′H)indol-3′-ylidene]-aminooxy}-butyric Acid (Sodium Salt)] | 12 ± 1 µM | 14 ± 1.1 µM |
| 3-{3′-[iminooxy-O-(2-(2-amino-2-deoxy-D-glucopyranosyl)-ethyl)]-(2′H3′H)indol-2′-ylidene}-(2H3H)indol-2-one [Example 53] | 15 ± 0.9 µM | 7 ± 0.7 µM |
| 3-[3′-[iminooxy-O-(2-D-glucopyranosylethyl)]-(2H′3H′)indol-2′-ylidene]-5-methyl-(2H3H)indol-2-one [Example 68] | 17 ± 0.8 µM | 2.5 ± 0.8 µM |
| O=C1Nc2ccc(CC(=O)N3CCNCC3)cc2C1=C1Nc2ccccc2C1=O [Example 6, 5-[2-(piperazin-1-yl)-ethan-2-one-1-yl]-indirubin] | 4 ± 0.5 µM | 8 ± 0.9 µM |
| 3-{3′-[iminooxy-O-(2-D-galactopyranosylethyl)]-(2′H3′H)indol-2′-ylidene}-(2H3H)indol-2-one [Example 47] | 17 ± 1.2 µM | 9.5 ± 0.9 µM |
| 3-{3′-[iminooxy-O-(2-(2-amino-ethyl)-amino-ethyl)]-(2′H3′H)indol-2′-ylidene}-(2H3H)indol-2-one [Example 66] | 7 ± 0.6 µM | 8 ± 1.2 µM |
| O=C(O)CCON=C1C(=C2C(=O)Nc3ccccc32)Nc2ccccc21 [Example 36, 3-{O-[2′-(2-oxo-(2H3H)indol-3-ylidene)-(2′H3′H)indol-3′-ylidene]-aminooxy}-propionic Acid (Sodium Salt)] |  | 16 ± 0.7 µM |
| CC(=O)Nc1ccc2c(c1)C(=C1Nc3ccccc3C1=O)C(=O)N2 [Example 16, 5-acetylamino-indirubin] | 10 ± 0.8 µM |  |
| CC(C)c1ccc2c(c1)/C(=C1/Nc3ccccc3C1=O)C(=O)N2 [Example 3, 5-isopropyl-indirubin] | 4 ± 0.2 µM | 0.5 ± 0.2 µM |

| Compound | IC50 [1] | IC50 [2] |
| --- | --- | --- |
| 3-[3′-[iminooxy-O-(N-(1-deoxy-glucitol)-2-amino-ethyl)]-(2H′3H′)indol-2′-ylidene]-5-methyl-(2H3H)indol-2-one [Example 69] | 3.5 ± 0.7 µM | 2.5 ± 0.9 µM |
| O=C1Nc2ccccc2C1=C1Nc2ccccc2C1=NOCCNCCO [Example 59, 3-{3′-[iminooxy-O-(N-hydroxyethyl-2-amino-ethyl)]-(2′H3′H)indol-2′-ylidene}-(2H3H)indol-2-one] | 11.6 ± 0.8 µM | 13.6 ± 1.2 µM |
| CN1CCN(CCON=C2C(=C3C(=O)Nc4ccccc43)Nc3ccccc32)CC1 [Example 65, 3-{3′-[iminooxy-O-(2-(4-methyl-piperazin-1-yl)-ethyl)]-(2′H3′H)indol-2′-ylidene}-(2H3H)indol-2-one] |  | 7.5 ± 0.8 µM |
| 3-{3′-[iminooxy-O-(2-(2-amino-2-deoxy-D-galactopyranosyl)-ethyl)]-(2′H3′H)indol-2′-ylidene}(2H3H)indol-2-one [Example 54] | 16 ± 1.1 µM | 9 ± 0.9 µM |
| O=C(O)CCCCON=C1C(=C2C(=O)Nc3ccccc32)Nc2ccccc21 [Example 38, 5{O-[2′-(2-oxo-(2H3H)indol-3-ylidene)-(2′H3′H)indol-3′-ylidene]-aminooxy}-pentanoic Acid (Sodium Salt)] | 14 ± 0.8 µM | 14 ± 0.7 µM |
| O=C1Nc2ccccc2C1=C1Nc2ccccc2C1=NOCCCCCCCCCCN(CCO)CCO [Example 62] | 14 ± 1 µM | 13.5 ± 1.3 µM |
| COC(=O)CNC(=O)Cc1ccc2c(c1)C(=C1Nc3ccccc3C1=O)C(=O)N2 [Example 12, methyl-2-{2-[3-(3′-oxo-(2′H3′H)indol-2′-ylidene)-(2H3H)indol-2-one-5-yl]-acetylamino}-acetate] | 8 ± 0.8 µM | 6.5 ± 1.2 µM |
| O=C1Nc2ccc(CC(=O)N3CCOCC3)cc2C1=C1Nc2ccccc2C1=O [Example 7, 5-[2-(morpholin-4-yl)-ethan-2-one-1-yl]-indirubin] | 5.5 ± 0.7 µM | 7.5 ± 0.6 µM |
| 3-{3′-[iminooxy-O-(3-D-glucopyranosylpropyl)]-(2′H3′H)indol-2′-ylidene}-(2H3H)indol-2-one [Example 45] | 19 ± 0.9 µM | 10.5 ± 0.6 µM |
| O=C1Nc2ccccc2C1=C1Nc2ccccc2C1=NOCCN1CCNCC1 [Example 63, 3-{3′-[iminooxy-O-(2-(piperazin-1-yl)-ethyl)]-(2′H3′H)indol-2′-ylidene}-(2H3H)indol-2-one] | 8 ± 0.6 µM | 9.5 ± 0.8 µM |
| CN(C)C(=O)CON=C1C(=C2C(=O)Nc3ccccc32)Nc2ccccc21 [Example 43, N,N-dimethyl-2{O-[2′-(2-oxo-(2H3H)indol-3-ylidene)-(2′H3′H)indol-3′-ylidene]-aminooxy}-acetamide] | 7 ± 1.1 µM | 9.2 ± 0.9 µM |
| CNC(=O)Cc1ccc2c(c1)C(=C1Nc3ccccc3C1=O)C(=O)N2 [Example 9, N-methyl-2-[3-(3′-oxo-(2′H3′H)indol-2′-ylidene)-(2H3H)indol-2-one-5-yl]-acetamide] | 11.5 ± 0.6 µM | 17 ± 1 µM |
| CCCc1ccc2c(c1)C(=C1Nc3ccccc3C1=O)C(=O)N2 [Example 4, 5-n-propyl-indirubin] | 7 ± 0.4 µM | 6.5 ± 0.5 µM |
| O=C1Nc2ccccc2C1=C1Nc2ccccc2C1=NOCCN[C@H]1C(O)O[C@H](CO)[C@@H](O)[C@@H]1O (stereo partly drawn) [Example 56, 3-{3′-[iminooxy-O-(N-(2-deoxy-glucose)-2-amino-ethyl)]-(2′H3′H)indol-2′-ylidene}-(2H3H)indol-2-one] | 12 ± 1.3 µM | 14 ± 1.2 µM |
| O=C(O)Cc1ccc2c(c1)C(=C1Nc3ccccc3C1=O)C(=O)N2 [Example 5, 5-(carboxymethyl)-indirubin] |  | 19.5 ± 1.4 µM |
| 3-{3′-[iminooxy-O-(2-L-arabinopyranosylethyl)]-(2′H3′H)indol-2′-ylidene}-(2H3H)indol-2-one [Example 49] | 20.5 ± 1.4 µM | 5 ± 0.7 µM |
| CCOC(=O)CON=C1C(=C2C(=O)Nc3ccccc32)Nc2ccccc21 [Example 40, ethyl-2{O-[2′-(2-oxo-(2H3H)indol-3-ylidene)-(2′H3′H)indol-3′-ylidene]-aminooxy}-acetate] | 6 ± 0.4 µM | 10 ± 0.7 µM |
| NCCNc1ccc2c(c1)C(=C1Nc3ccccc3C1=O)C(=O)N2 [Example 20, 5-(2-amino-ethyl)-amino-indirubin] | 4 ± 0.3 µM | 3.5 ± 0.4 µM |
| CN(C)C(=O)ON=C1C(=C2C(=O)Nc3ccccc32)Nc2ccccc21 [Example 41, 3-{3′-[iminooxy-O-((N,N)-dimethyl-carbamoyl)]-(2′H3′H)indol-2′-ylidene}-(2H3H)indol-2-one] | 5 ± 0.6 µM | 7.5 ± 0.9 µM |
| O=C1Nc2ccccc2C1=C1Nc2ccccc2C1=NOCCN[C@H]1C(O)O[C@H](CO)[C@H](O)[C@@H]1O (stereo partly drawn) [Example 57, 3-{3′-[iminooxy-O-(N-(2-deoxy-galactose)-2-amino-ethyl)]-(2′H3′H)indol-2′-ylidene}-(2H3H)indol-2-one] | 23 ± 1.4 µM |  |
| O=C1Nc2ccc(S(=O)(=O)N3CCNCC3)cc2C1=C1Nc2ccccc2C1=O [Example 22, indirubin-5-sulfonic acid-(piperazin-1-yl-amide)] | 3 ± 0.5 µM | 2 ± 0.3 µM |

From patent US6987092B1, “Indigoid bisindole derivatives” (Faustus Forschungs Cie. Translational Cancer Research GmbH, priority 1999, dated 2006)
